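Results reflect a 48-hour exposure of cells in 96-well plates to compound at five concentrations. GI50 = concentration required for 50% inhibition of growth.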 Calls of active or inactive are those of the source. No stated cut-off is given here; in the data, active = GI50 up to about 1.1 µM and inactive = higher.
Tests used:
Assay in all cases: NCI tumour cell line growth inhibition, 48 h
[1] = test system: 786-0
[2] = test system: A549
[3] = test system: ACHN
[4] = test system: BT-549
[5] = test system: CAKI-1
[6] = test system: COLO 205
[7] = test system: DU-145
[8] = test system: EKVX
[9] = test system: HCT-116
[10] = test system: HCT-15
[11] = test system: HL-60
[12] = test system: HOP-62
[13] = test system: HT-29
[14] = test system: Hs-578T
[15] = test system: KM12
[16] = test system: LOX IMVI
[17] = test system: M14
[18] = test system: MCF7
[19] = test system: MDA-MB-435
[20] = test system: MDA-N
[21] = test system: MOLT-4
[22] = test system: Malme-3M
[23] = test system: NCI-H226
[24] = test system: NCI-H23
[25] = test system: NCI-H522
[26] = test system: NCI/ADR-RES
[27] = test system: OVCAR-3
[28] = test system: OVCAR-4
[29] = test system: OVCAR-5
[30] = test system: OVCAR-8
[31] = test system: PC-3
[32] = test system: RPMI-8226
[33] = test system: RXF 393
[34] = test system: SF-268
[35] = test system: SF-295
[36] = test system: SF-539
[37] = test system: SK-MEL-28
[38] = test system: SK-MEL-2
[39] = test system: SK-MEL-5
[40] = test system: SK-OV-3
[41] = test system: SN12C
[42] = test system: SNB-19
[43] = test system: SNB-75
[44] = test system: SR
[45] = test system: SW-620
[46] = test system: T47D
[47] = test system: TK-10
[48] = test system: U-251
[49] = test system: UACC-257
[50] = test system: UACC-62
[51] = test system: UO-31

Compound: COc1cc(N(Cc2ccc3nc(OC)c(OC)nc3c2)Cc2ccc3nc(OC)c(OC)nc3c2)cc(OC)c1OC
- GI50 [1]: 16.3 µM (inactive)
- GI50 [2]: > 50 µM (inactive)
- GI50 [3]: 42.2 µM (inactive)
- GI50 [4]: 6.78 µM (inactive)
- GI50 [5]: > 50 µM (inactive)
- GI50 [6]: > 50 µM (inactive)
- GI50 [7]: > 50 µM (inactive)
- GI50 [8]: 39.3 µM (inactive)
- GI50 [9]: 33.2 µM (inactive)
- GI50 [10]: > 50 µM
- GI50 [11]: > 50 µM (inactive)
- GI50 [12]: 1.3 µM (inactive)
- GI50 [13]: > 50 µM (inactive)
- GI50 [14]: 7.67 µM (inactive)
- GI50 [15]: > 50 µM (inactive)
- GI50 [16]: > 50 µM (inactive)
- GI50 [17]: > 50 µM (inactive)
- GI50 [18]: 32.9 µM (inactive)
- GI50 [19]: > 50 µM (inactive)
- GI50 [20]: > 50 µM (inactive)
- GI50 [21]: > 50 µM (inactive)
- GI50 [22]: > 50 µM (inactive)
- GI50 [23]: > 50 µM (inactive)
- GI50 [24]: > 50 µM (inactive)
- GI50 [25]: > 50 µM (inactive)
- GI50 [26]: > 50 µM (inactive)
- GI50 [27]: 31.5 µM (inactive)
- GI50 [28]: > 50 µM (inactive)
- GI50 [29]: > 50 µM (inactive)
- GI50 [30]: > 50 µM (inactive)
- GI50 [31]: > 50 µM (inactive)
- GI50 [32]: > 50 µM (inactive)
- GI50 [33]: 10.7 µM (inactive)
- GI50 [34]: 32.1 µM (inactive)
- GI50 [35]: 19.6 µM (inactive)
- GI50 [36]: 26.3 µM (inactive)
- GI50 [37]: > 50 µM (inactive)
- GI50 [38]: 20.9 µM (inactive)
- GI50 [39]: > 50 µM (inactive)
- GI50 [40]: 29.1 µM (inactive)
- GI50 [41]: > 50 µM (inactive)
- GI50 [42]: 14.9 µM (inactive)
- GI50 [43]: 6.9 µM (inactive)
- GI50 [44]: > 50 µM (inactive)
- GI50 [45]: > 50 µM (inactive)
- GI50 [46]: > 50 µM (inactive)
- GI50 [47]: 30.8 µM (inactive)
- GI50 [48]: 19.8 µM (inactive)
- GI50 [49]: > 50 µM (inactive)
- GI50 [50]: > 50 µM (inactive)
- GI50 [51]: 31.5 µM (inactive)

Reference: ChEMBL document CHEMBL1201862, “PubChem BioAssay data set” (2004)
